Experimental data as given in PMC6982817, “Substituted N-(Pyrazin-2-yl)benzenesulfonamides; Synthesis, Anti-Infective Evaluation, Cytotoxicity, and In Silico Studies” (Molecules, 2019).
Converted amounts (≈) assume the structure as drawn. Like-named read-outs stand apart in the source and are kept apart here.

What was measured:
[1] = tested on: Mycobacterium tuberculosis H37Rv CNCTC My 331/88 (ATCC 27294); assay: Antimycobacterial microplate alamar blue assay, M. tuberculosis H37Rv; type: cell-based; details: for Antimycobacterial Activity MIC Mtb H37Rv: Middlebrook 7H9 broth pH 6.6, alamar blue; for MIC: Mycobacterium tuberculosis
[2] = tested on: M. kansasii CNCTC My 235/80 (ATCC 12478); assay: Antimycobacterial microplate alamar blue assay, M. kansasii; type: cell-based, Mycobacterium kansasii; details: for MIC: Mycobacterium kansasii; for Antimycobacterial Activity MIC M. kansasii: Middlebrook 7H9 broth pH 6.6, alamar blue
[3] = tested on: Mycobacterium smegmatis DSM 43465 (ATCC 607); assay: Antimycobacterial microdilution assay, M. smegmatis; type: cell-based; details: for MIC: Mycolicibacterium smegmatis
in vitro = details: human
[4] = tested on: M. avium ssp. avium CNCTC My 80/72 (ATCC 15769); assay: Antimycobacterial microplate alamar blue assay, M. avium; type: cell-based, Mycobacterium avium; details: for MIC: Mycobacterium avium
[5] = tested on: Mycobacterium aurum DSM 43999 (ATCC 23366); assay: Antimycobacterial microdilution assay, M. aurum; type: cell-based; details: Middlebrook 7H9 broth, resazurin after 72 hours; for MIC: Mycolicibacterium aurum, 72 h
[6] = ATCC12478, pH 6.6, Middlebrook 7H9 broth pH 6.6, alamar blue, read-out: Antimycobacterial Activity MIC M. kansasii
[7] = 48 h, Middlebrook 7H9 broth, resazurin after 48 hours, read-out: Antimycobacterial Activity MIC M. smeg
[8] = ATCC15769, pH 6.6, Middlebrook 7H9 broth pH 6.6, alamar blue, read-out: Antimycobacterial Activity MIC M. avium
[9] = Table 4 comparison, title compounds, read-out: Antimycobacterial Activity MIC against Mtb H37Rv, Sulfonamide
[10] = pH 6.6, Middlebrook 7H9 broth pH 6.6, alamar blue, read-out: Antimycobacterial Activity MIC Mtb H37Rv
[11] = ATCC12478, molar value printed beside μg/mL in text, read-out: MIC M. kansasii
[12] = Middlebrook 7H9 broth, resazurin after 48 hours

| Compound | Antimycobacterial Activity MIC Mtb H37Rv [1] | MIC ([1]; pH 6.6, read-out: Antimycobacterial Activity MIC Mtb H37Rv) | melting point | MIC [2, 6] | MIC [3, 7] | IC50 at 24 h (in vitro) | MIC [4, 8] | MIC [5] | MIC [1, 9] | MIC [1, 10] | MIC [2, 11] | MIC ([1]; read-out: MIC Mtb H37Rv) | MIC ([4]; ATCC15769, molar value printed beside μg/mL in text, read-out: MIC M. avium) | Antimycobacterial Activity MIC M. kansasii [2] | MIC ([3]; read-out: MIC M. smegmatis) | Antimycobacterial Activity MIC M. smeg [3, 12] | Antimycobacterial Activity MIC M. aurum [5] | Antimycobacterial Activity MIC M. avium ([4]; Middlebrook 7H9 broth pH 6.6, alamar blue) |
| --- | --- | --- | --- | --- | --- | --- | --- | --- | --- | --- | --- | --- | --- | --- | --- | --- | --- | --- |
| NS(=O)(=O)c1ccccc1 [Benzenesulfonamide, benzenesulfonamide] | completely inactive | > 100 µg/mL |  |  |  |  |  |  |  |  |  |  |  |  |  |  |  |  |
| O=S(=O)(Nc1cnccn1)c1ccccc1 [Compound 1a, N-(pyrazin-2-yl)benzenesulfonamide] |  |  | 203 to 205 °C | 100 µg/mL | ≥ 250 µg/mL | > 1000 µM | > 100 µg/mL | ≥ 500 µg/mL | > 100 µg/mL | > 100 µg/mL |  |  |  |  |  |  |  |  |
| O=S(=O)(Nc1cncc(Cl)n1)c1ccccc1 [Compound 1b, N-(6-chloropyrazin-2-yl)benzenesulfonamide] |  |  | 198 to 200.2 °C | 100 µg/mL | 250 µg/mL | 731 µM | > 100 µg/mL | ≥ 500 µg/mL | 50 µg/mL | 50 µg/mL |  |  |  |  |  |  |  |  |
| CC(=O)Nc1ccc(S(=O)(=O)Nc2cnccn2)cc1 [Compound 2a, N-(4-(N-(pyrazin-2-yl)sulfamoyl)phenyl)acetamide] |  |  | 243.8 to 245.6 °C | 25 µg/mL | ≥ 500 µg/mL | > 500 µM | > 100 µg/mL | ≥ 500 µg/mL |  | > 100 µg/mL | 85.5 µM |  |  |  |  |  |  |  |
| CC(=O)Nc1ccc(S(=O)(=O)Nc2cncc(Cl)n2)cc1 [Compound 2b, N-(4-(N-(6-chloropyrazin-2-yl)sulfamoyl)phenyl)acetamide] |  |  |  | 25 µg/mL | 250 µg/mL | > 500 µM | > 100 µg/mL | ≥ 500 µg/mL |  | > 100 µg/mL | 76.5 µM |  |  |  |  |  |  |  |
| O=[N+]([O-])c1ccc(S(=O)(=O)Nc2cnccn2)cc1 [Compound 3a, 4-nitro-N-(pyrazin-2-yl)benzenesulfonamide] |  |  | 230.8 to 231.8 °C | > 100 µg/mL | > 500 µg/mL | > 1000 µM | > 100 µg/mL | > 500 µg/mL |  | > 100 µg/mL |  |  |  |  |  |  |  |  |
| O=[N+]([O-])c1ccc(S(=O)(=O)Nc2cncc(Cl)n2)cc1 [Compound 3b, N-(6-chloropyrazin-2-yl)-4-nitrobenzenesulfonamide] |  |  |  | > 100 µg/mL | 250 µg/mL | > 1000 µM | > 100 µg/mL | 125 µg/mL (≈ 397 µM) |  | > 100 µg/mL |  |  |  |  |  |  |  |  |
| Nc1ccc(S(=O)(=O)Nc2cnccn2)cc1 [Compound 4a, 4-amino-N-(pyrazin-2-yl)benzenesulfonamide] |  |  |  |  | ≥ 500 µg/mL | 776 µM | 100 µg/mL | 250 µg/mL (≈ 999 µM) |  | 6.25 µg/mL | 6.2 µM | 25 µM |  |  |  |  |  |  |
| Nc1ccc(S(=O)(=O)Nc2cncc(Cl)n2)cc1 [Compound 4b, 4-amino-N-(6-chloropyrazin-2-yl)benzenesulfonamide] |  |  | 234.7 to 236.1 °C | 12.5 µg/mL | ≥ 500 µg/mL | > 500 µM | 25 µg/mL | 250 µg/mL (≈ 878 µM) |  | 6.25 µg/mL | 44 µM | 22 µM | 88 µM |  |  |  |  |  |
| O=S(=O)(Nc1cnccn1)c1ccc(C(F)(F)F)cc1 [Compound 5a, N-(pyrazin-2-yl)-4-(trifluoromethyl)benzenesulfonamide] |  |  | 154.3 to 155.5 °C | 50 µg/mL | 250 µg/mL | > 1000 µM | > 100 µg/mL | 250 µg/mL (≈ 824 µM) |  | > 100 µg/mL |  |  |  |  |  |  |  |  |
| O=S(=O)(Nc1cncc(Cl)n1)c1ccc(C(F)(F)F)cc1 [Compound 5b, N-(6-chloropyrazin-2-yl)-4-(trifluoromethyl)benzenesulfonamide] |  |  | 125 to 127.2 °C | > 100 µg/mL | 250 µg/mL | 364 µM | > 100 µg/mL | 250 µg/mL (≈ 740 µM) |  | 100 µg/mL |  |  |  |  |  |  |  |  |
| COc1ccc(S(=O)(=O)Nc2cnccn2)cc1 [Compound 6a, 4-methoxy-N-(pyrazin-2-yl)benzenesulfonamide] |  |  |  | > 100 µg/mL | ≥ 500 µg/mL | > 1000 µM | > 100 µg/mL | ≥ 500 µg/mL | > 100 µg/mL | > 100 µg/mL |  |  |  |  |  |  |  |  |
| O=S(=O)(Nc1cncc(Cl)n1)c1ccc(Br)cc1 [Compound 7b, 4-bromo-N-(6-chloropyrazin-2-yl)benzenesulfonamide] |  |  | 176.5 to 179.3 °C | 50 µg/mL | 125 µg/mL | 308 µM | > 100 µg/mL | 125 µg/mL (≈ 359 µM) |  | 100 µg/mL |  |  |  |  |  |  |  |  |
| Cc1cc(C)cc(S(=O)(=O)Nc2cnccn2)c1 [Compound 8a, 3,5-dimethyl-N-(pyrazin-2-yl)benzenesulfonamide] |  |  | 184 to 187 °C | 50 µg/mL | ≥ 500 µg/mL | > 500 µM | > 100 µg/mL | 250 µg/mL (≈ 949 µM) |  | > 100 µg/mL |  |  |  |  |  |  |  |  |
| Cc1cc(C)cc(S(=O)(=O)Nc2cncc(Cl)n2)c1 [Compound 8b, N-(6-chloropyrazin-2-yl)-3,5-dimethylbenzenesulfonamide] |  |  |  | > 100 µg/mL | ≥ 500 µg/mL | 523 µM | 50 µg/mL | ≥ 500 µg/mL |  | 50 µg/mL |  |  |  |  |  |  |  |  |
| Cc1cc(C)c(S(=O)(=O)Nc2cnccn2)c(C)c1 [Compound 9a, 2,4,6-trimethyl-N-(pyrazin-2-yl)benzenesulfonamide] |  |  |  | > 100 µg/mL | 125 µg/mL | > 250 µM | > 100 µg/mL | ≥ 500 µg/mL |  | > 100 µg/mL |  |  |  |  |  |  |  |  |
| Cc1cc(C)c(C)c(S(=O)(=O)Nc2cnccn2)c1C [Compound 10a, 2,3,5,6-tetramethyl-N-(pyrazin-2-yl)benzenesulfonamide] |  |  | 221 to 223.7 °C | 50 µg/mL | ≥ 500 µg/mL | > 250 µM | > 100 µg/mL | ≥ 500 µg/mL |  | > 100 µg/mL |  |  |  |  |  |  |  |  |
| O=S(=O)(Nc1cnccn1)c1ccc2c(c1)OCCO2 [Compound 11a, N-(pyrazin-2-yl)-2,3-dihydrobenzo[b][1,4]dioxine-6-sulfonamide] |  |  | 264 to 267.1 °C | > 100 µg/mL | ≥ 500 µg/mL | > 1000 µM | > 100 µg/mL | 250 µg/mL (≈ 852 µM) |  | > 100 µg/mL | > 305 µM |  |  | >100 µg/mL |  |  |  |  |
| O=S(=O)(Nc1cncc(Cl)n1)c1ccc2c(c1)OCCO2 [Compound 11b, N-(6-chloropyrazin-2-yl)-2,3-dihydrobenzo[b][1,4]dioxine-6-sulfonamide] |  |  | 244.6 to 247 °C | 25 µg/mL | ≥ 500 µg/mL | 778 µM | > 100 µg/mL | ≥ 500 µg/mL |  | > 100 µg/mL | 76.3 µM |  |  |  |  |  |  |  |
| O=S(=O)(Nc1cnccn1)c1ccc(-c2ccccc2)cc1 [Compound 12a, N-(pyrazin-2-yl)-[1,1′-biphenyl]-4-sulfonamide] |  |  |  | 100 µg/mL | ≥ 500 µg/mL | > 250 µM | > 100 µg/mL | ≥ 500 µg/mL |  | 100 µg/mL | 321 µM |  |  |  |  |  |  |  |
| O=S(=O)(Nc1cncc(Cl)n1)c1ccc(-c2ccccc2)cc1 [Compound 12b, N-(6-chloropyrazin-2-yl)-[1,1′-biphenyl]-4-sulfonamide] |  |  | 229.3 to 230.3 °C | 12.5 µg/mL | ≥ 500 µg/mL | 302 µM | > 100 µg/mL | ≥ 500 µg/mL |  | 100 µg/mL | 36.1 µM |  |  |  |  |  |  |  |
| O=S(=O)(Nc1cnccn1)c1ccc2ccccc2c1 [Compound 13a, N-(pyrazin-2-yl)naphthalene-2-sulfonamide] |  |  | 223.5 to 224.7 °C | 50 µg/mL | 62.5 µg/mL | > 500 µM | > 100 µg/mL | ≥ 500 µg/mL |  | > 100 µg/mL |  |  |  |  | 219 µM |  |  |  |
| O=S(=O)(Nc1cnccn1)c1ccc2ncccc2c1 [Compound 14a, N-(pyrazin-2-yl)quinoline-6-sulfonamide] |  |  | 249.4 to 252 °C | 100 µg/mL | ≥ 500 µg/mL | > 250 µM | > 100 µg/mL | ≥ 500 µg/mL |  | > 100 µg/mL |  |  |  |  |  |  |  |  |
| CO[C@H]1/C=C/O[C@@]2(C)Oc3c(C)c(O)c4c(O)c(c(/C=N/N5CCN(C)CC5)c(O)c4c3C2=O)NC(=O)/C(C)=C\C=C\[C@H](C)[C@H](O)[C@@H](C)[C@@H](O)[C@@H](C)[C@H](OC(C)=O)[C@@H]1C [RFM, reference compound] |  |  |  |  | 12.5 to 25 µg/mL |  |  | 0.78 to 1.56 µg/mL (≈ 0.948 to 1.9 µM) |  |  |  |  |  |  |  | 25 µg/mL | 1.56 µg/mL |  |
| Nc1ccc(S(=O)(=O)Nc2cncc(Cl)n2)cc1 [Sulfaclozine, reference compound] | 6.25 µg/mL |  |  |  |  |  |  |  |  |  |  |  |  | 12.5 µg/mL |  | 250 µg/mL | 250 µg/mL | 25 µg/mL |
| Nc1ccc(S(=O)(=O)Nc2cnc3ccccc3n2)cc1 [Sulfaquinoxaline, reference compound] |  |  |  | 12.5 µg/mL | 125 µg/mL |  | 50 µg/mL | 250 µg/mL (≈ 832 µM) |  | 3.13 µg/mL |  |  |  |  |  |  |  |  |
